Entries after “also recorded” stand apart in the source; their conditions may differ.

The record followed here is US5389613A, “Method of treating prostate adenocarcinoma, prostate benign hypertrophia and endometriosis” (Roussel Uclaf, priority 1979, dated 1995).

The test system of assay [1] is testicular steriodogenosis. The assay is described as follows: Inhibitory activity on testicular steroidogenesis in a patient with prostate cancer (plasmatic steroids). The assay is classed as in vivo, human. To be noted: 500 μg intranasally twice a day. The text has this:
The results are reported in the graphs of sheet 2 of the Figures.

A further assay deals with ovarian steroidogenosis. Kind of assay: Inhibitory activity on ovarian steroidogenesis in women (seric LH, FSH, progesterone, estradiol). In kind it is in vivo. The conditions noted are these: for reduction of seric levels of progesterone compared to the controls: typical subject (sheet 3), 500 μg intranasal at 8 A.M. and 5 P.M. The protocol: The study was conducted for 6 consecutive cycles consisting of 2 pretreatment cycles, 2 treatment cycles and 2 post-treatment cycles. […] Daily blood samples were taken between 4 and 6 P.M. to measure seric levels of LH, FSH, progesterone and estradiol which were determined by radioimmuno-logic tests with double antibodies. The antibodies to measure LH and FSH were furnished by the National Pituitory Agency of N.I.H. of Bethesda, Md.
Estradiol and progesterone were measured with highly specific antibodies developed against 7-(0-carboxymethyl)-oxime of estradiol and 12-(0-carboxymethyl)-oxime of progesterone, respectively [3H] 17β-estradiol and ^125 I-progesterone -12-[0-carboxymethyl)-oxime] used as tracers. The serum was extracted with benzene and the steroids were separated with a LH-20 column before the determination. The radioimmunological results were exploited by the program derived from model II of Rodbard and Lewald as in Example 1 and the statistical significance was measured by the multiple level test of Ducan-Kramer of Example 1. The results are shown in the graphs of sheets 3 to 5 of the Figures.

The subject of assay [2] is testicular steroidogensis. Kind of assay: Inhibitory activity against testicular steroidogenesis in men in good health (seric LH, FSH and steroids by radioimmunoassay). The assay is classed as in vivo. The protocol: The said product was administered intranasally at a dose of 500 μg in a few drops of distilled water at 8 A.M. on the third day of the test. For 2 days prior to the treatment and for 6 days after the treatment, samples of blood were taken daily at 8 A.M., 3 P.M. and 10 P.M. On the day of administration of the LH-RH agonist, blood samples were taken at 11 A.M. and 6 P.M.
The seric concentrations of LH and FSH were measured by radioimmuno-logic dosages with double antibodies and the antibodies for measuring LH and FSH were furnished by the National Pituitary Agency of N.I.H. in Bethesda, Md. The seric concentrations of steroids was measured by radioimmuno-logic dosages in which one ml of serum was extracted with ether and the steroids were separated on a LH-20 column before measuring with radioimmuno-logic dosages. The radioimmuno-logic dosage results were determined by a program derived from model II of Rodbard et al [Second Karolinska Symposium on Research Methods in Reproductive Endroerinology, Diczfalusky Editor, Copenhague (1970), p. 79-103]. The statistical significance was determined by the "multiple level test" of Duncan-Kramer [Kramer, Biometrics, Vol 12 (1956), p. 307]. The results are shown in the graphs on sheet 1 of the Figures filed herewith.

The mark [3] stands for this setting: intranasal 500 μg, men, 3rd day following administration.

As to `CCNC(=O)[C@@H]1CCCN1C(=O)[C@H](CCCNC(=N)N)NC(=O)[C@H](CC(C)C)NC(=O)[C@@H](COC(C)(C)C)NC(=O)[C@H](Cc1ccc(O)cc1)NC(=O)[C@H](CO)NC(=O)[C@H](Cc1c[nH]c2ccccc12)NC(=O)[C@H](Cc1c[nH]cn1)NC(=O)[C@@H]1CCC(=O)N1` [D Ser (Tbu)^6 of Gly^10 LH-RH ethylamide, [D Ser (Tbu)^6 des.Gly NH2^10] LH-RH ethylamide], the “androgenic steroids (plasmatic)” value in assay [1] is reported as “diminution”. Also, in assay [1] (two weeks of treatment), the level of testosterone result is “stabilized at a very low level”. The entries for the “level of progesterone, pretreatment cycles as base of 100%” value in the assay with ovarian steroidogenosis (12 cycles of post-treatment) and in the assay on ovarian steroidogenosis (12 cycles of treatment) were 99% and 46%, respectively. Further, the “level of progesterone reduced as compared to the controls” value in the assay on ovarian steroidogenosis (12 cycles of treatment (sheet 5), scale 13 to 127%) was 46%. The “reduction of seric levels of progesterone compared to the controls” value in the assay with ovarian steroidogenosis (first cycle of treatment) is 13%; with ovarian steroidogenosis (second cycle of treatment), 34%. Also, the “effect on testicular steroidogenesis in man” value in assay [2] (intranasal 500 μg, men) is given as “inhibition of testicular steroidogenesis”. In assay [2] (setting [3]), the “seric concentration of 17-OH-progesterone relative to initial control values” is given as 40%. In assay [2] (setting [3]), the “seric concentration of testosterone relative to initial control values” is 50%. Also, the “LH and FSH plasmatic levels” value in assay [2] (intranasal 500 μg, men, day of administration) is listed as “increase”. Besides, in assay [2] (intranasal 500 μg, men, on the day of treatment), the “seric concentration of pregnenolone, 17-OH-pregnenolone, progesterone, 17-OH-progesterone, Δ5-androstene-3β,17β-diol and testosterone” value is “increased”. For the same molecule, the “level of testosterone/steroids on the fourth day after administration” value in assay [2] (single intranasal dose of 500 μg, fourth day after administration) is “returned to normal; also recorded: return to normal levels”. The “duration of the drop of seric levels of testicular steroids (testosterone and its precursors)” value in assay [2] (single intranasal dose of 500 μg, human) was determined as 3 days.
